{"source": "patent US10357490B2", "about": "“Combinations for the treatment of neuroblastoma” (IGNYTA, INC., priority 2014, dated 2019)", "key": {"[1]": {"system": "TrkB-expressing neuroblastoma cells (SH-SY5Y cells stably transfected with TrkB)", "experiment": "Sulphorhodamine B (SRB) assay, survival and growth of TrkB-expressing neuroblastoma cells", "type": "cell-based", "details": "single agent; 1-100 nM; 100 ng per mL BDNF; 24, 48, 72 hours"}, "[2]": {"system": "SY5Y-TrkB cells", "experiment": "SY5Y-TrkB xenograft study: tumor growth and event-free survival", "type": "in vivo, athymic nu/nu mice", "details": "oral", "procedure": "N-[5-(3,5-difluorobenzyl)-1H-indazol-3-yl]-4-(4-methyl-piperazin-1-yl)-2-(tetrahydro-2H-pyran-4-ylamino) benzamide_was dissolved in DMSO to obtain stocks for in vitro studies. For in vivo xenograft experiments, N-[5-(3,5-difluorobenzyl)-1H-indazol-3-yl]-4-(4-methyl-piperazin-1-yl)-2-(tetrahydro-2H-pyran-4-ylamino) benzamide was reconstituted in 0.5% methyl cellulose (Sigma-Aldrich, viscosity 400 cP, 2% in H2O) containing 1% Tween 80 at a final dosing volume of 10 mL per kg. Prior to dosing, the formulation was stirred at room temperature for 30 min, and then sonicated in a water bath sonicator for 20 min. The formulation was made fresh every week. For the in vivo study, the animals were dosed with the formulation of N-[5-(3,5-difluorobenzyl)-1H-indazol-3-yl]-4-(4-methyl-piperazin-1-yl)-2-(tetrahydro-2H-pyran-4-ylamino) benzamide twice a day (BID) for 7 days per week at a dose of 60 mg per kg.\nXenograft studies were performed using SH-SY5Y cells stably transfected with TrkB. Cells were grown in RPMI-1640 medium containing 10% fetal bovine serum and maintained in 150 cm^3 Costar culture flasks in a humidified atmosphere of 95% air and 5% CO2. Cells were harvested using 0.2% tetra sodium EDTA in phosphate buffered saline (PBS).\nSix-week-old athymic nu/nu mice were obtained from Jackson Laboratories. Mice were maintained at five per cage under humidity- and temperature-controlled conditions in a light/dark cycle that was set at 12-hour intervals.\nFor in vivo xenograft studies, six-week-old athymic nu/nu mice were injected subcutaneously in the flank with 1×10^7 SY5Y-TrkB cells in 0.1 ml of Matrigel (BD Bioscience, Palo Alto, Calif.). Tumors were measured 2 times per week in 3 dimensions, and the volume calculated as follows: [(0.523×L×W×W)/1000]. Body weights of the mice were obtained every week and the dose of the tested compounds were adjusted accordingly. […]"}}, "data": [{"compound": "CN1CCN(c2ccc(C(=O)Nc3n[nH]c4ccc(Cc5cc(F)cc(F)c5)cc34)c(NC3CCOCC3)c2)CC1", "note": "[N-[5-(3,5-difluorobenzyl)-1H-indazol-3-yl]-4-(4-methyl-piperazin-1-yl)-2-(tetrahydro-2H-pyran-4-ylamino) benzamide]", "values": [{"measurement": "inhibition of growth of TrkB-expressing NB cells in vitro", "setting": "[1]", "value": "significantly inhibited growth"}, {"measurement": "Estimated slope from linear mixed effects model (increase of log tumor volume)", "setting": "[2]; Control vs Group 2 analysis (FIG. 3), Group 2: alone, 60 mg per kg, twice per day, 7 times per week", "value": "0.0973 per day in the log of tumor volume"}, {"measurement": "Estimated slope of trace in FIG. 1, linear mixed effects model", "setting": "[2]; Group 2: alone, 60 mg per kg, twice per day, 7 times per week", "value": "0.0696 per day in the log of tumor volume"}, {"measurement": "tumor growth inhibition compared to control animals", "setting": "[2]; single agent therapy, 60 mg per kg BID", "value": "significant tumor growth inhibition"}]}]}
